What was measured:
Format in all cases: in vivo
Abutilon theophrasti [1] = test: greenhouse post-emergence herbicidal test; conditions: scale 0 to 100
From the text: (§1) The culture containers used were plastic flowerpots containing loamy sand with approximately 3.0% of humus as the substrate. The seeds of the test plants were sown separately for each species.
(§2) For the post-emergence treatment, the test plants were first grown to a height of 3 to 15 cm, depending on the plant habit, and only then treated with the active ingredients which had been suspended or emulsified in water. For this purpose, the test plants were either sown directly and grown in the same containers, or they were first grown separately as seedlings and transplanted into the test containers a few days prior to treatment.
(§3) Depending on the species, the plants were kept at 10-25° C. or 20-35° C., respectively.
(§4) The test period extended over 2 to 4 weeks. During this time, the plants were tended, and their response to the individual treatments was evaluated.
(§5) Evaluation was carried out using a scale from 0 to 100. 100 means no emergence of the plants, or complete destruction of at least the aerial moieties, and 0 means no damage, or normal course of growth. A moderate herbicidal activity is given at values of at least 60, a good herbicidal activity is given at values of at least 70, and a very good herbicidal activity is given at values of at least 85.

Echinocloa crus-galli [2] = test: greenhouse post-emergence herbicidal test; conditions: 125 g/ha, scale 0 to 100
From the text: as §1, §2, §3, §4, §5

Setaria viridis = test: greenhouse post-emergence herbicidal test; conditions: 125 g/ha, scale 0 to 100
From the text: as §1, §2, §3, §4, §5

Echinocloa crus-galli [3] = test: greenhouse pre-emergence herbicidal test; conditions: 250 g/ha, scale 0 to 100
How it was run: (§6)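 Seeds sown in loamy sand (~3.0% humus); compounds suspended or emulsified in water, sprayed directly after sowing, pots covered until rooting. Kept at 10-25° C. or 20-35° C. by species for 2 to 4 weeks. Damage scored visually 0-100 (100 = no emergence or complete aerial destruction).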

Lolium multiflorum = test: greenhouse pre-emergence herbicidal test; conditions: 250 g/ha, scale 0 to 100
How it was run: as §6

Amaranthus retroflexus [4] = test: greenhouse post-emergence herbicidal test; conditions: 250 g/ha, scale 0 to 100
From the text: as §1, §2, §3, §4, §5

Apera spica-venti = test: greenhouse pre-emergence herbicidal test; conditions: 250 g/ha, scale 0 to 100
How it was run: as §6

Amaranthus retroflexus [5] = test: greenhouse pre-emergence herbicidal test; conditions: 250 g/ha, scale 0 to 100
How it was run: as §6

Setaria faberi = test: greenhouse pre-emergence herbicidal test; conditions: 250 g/ha, scale 0 to 100
How it was run: (§7)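 Compounds suspended or emulsified in water were sprayed onto loamy sand (about 3.0% humus) right after sowing; pots were hooded until rooting. Damage was scored on a 0–100 scale (100 = no emergence or complete aerial destruction, 0 = normal growth) after 2 to 4 weeks.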

Abutilon theophrasti [6] = test: greenhouse pre-emergence herbicidal test; conditions: 250 g/ha, scale 0 to 100
How it was run: as §7

Alopercurus myosuroides = test: greenhouse pre-emergence herbicidal test; conditions: 250 g/ha, scale 0 to 100
How it was run: as §6

| SMILES | herbicidal activity (Echinocloa crus-galli [3]) [%] | herbicidal activity (Apera spica-venti) [%] | herbicidal activity (Setaria faberi) [%] | other results |
| --- | --- | --- | --- | --- |
| CC(C)(F)c1nc(N)nc(Nc2c(F)cccc2OCc2ccccc2[N+](=O)[O-])n1 [Example 28] | – | – | – | herbicidal activity (Abutilon theophrasti [1]; 125 g/ha): 75%; herbicidal activity (Echinocloa crus-galli [2]): 85%; herbicidal activity (Setaria viridis): 75% |
| Cc1ccc(COc2cccc(F)c2Nc2nc(N)nc(C(C)(C)F)n2)cc1F [Example 56] | 95 | – | – | herbicidal activity (Lolium multiflorum): 100% |
| Cc1cscc1COc1cccc(F)c1Nc1nc(N)nc(C(C)(C)F)n1 [Example 111] | 85 | 80 | – | herbicidal activity (Abutilon theophrasti [1]; 250 g/ha): 100%; herbicidal activity (Amaranthus retroflexus [4]): 100% |
| CC(C)(F)c1nc(N)nc(Nc2c(F)cccc2OCc2cc(Cl)sc2Cl)n1 [Example 112] | 80 | 80 | – | herbicidal activity (Abutilon theophrasti [1]; 250 g/ha): 100%; herbicidal activity (Amaranthus retroflexus [4]): 100% |
| CC(C)(F)c1nc(N)nc(Nc2c(F)cccc2OCc2ccsc2C#N)n1 [Example 121] | – | – | – | herbicidal activity (Abutilon theophrasti [1]; 250 g/ha): 100%; herbicidal activity (Amaranthus retroflexus [4]): 100%; herbicidal activity (Amaranthus retroflexus [5]): 80% |
| Cc1cc(COc2cccc(F)c2Nc2nc(N)nc(C(C)(C)F)n2)c(C)s1 [Example 125] | 100 | 85 | – | – |
| CC(C)(F)c1nc(N)nc(Nc2c(F)cccc2OCc2cccc(OCC(F)(F)F)c2)n1 [Example 134] | 90 | 95 | 90 | – |
| CC(C)(F)c1nc(N)nc(Nc2c(F)cccc2OCc2cccc(OC(F)(F)F)c2)n1 [Example 136] | 85 | 80 | 80 | – |
| CC(C)(F)c1nc(N)nc(Nc2c(F)c(F)cc(F)c2OCc2cccc(F)c2)n1 [Example 204] | 100 | – | 100 | herbicidal activity (Abutilon theophrasti [6]): 100%; herbicidal activity (Alopercurus myosuroides): 100% |
| CC(C)(F)c1nc(N)nc(Nc2c(F)c(F)cc(F)c2OCc2ccccc2Cl)n1 [Example 206] | 100 | – | 100 | herbicidal activity (Abutilon theophrasti [6]): 100%; herbicidal activity (Alopercurus myosuroides): 100% |
| CCc1ccc(COc2c(F)cc(F)c(F)c2Nc2nc(N)nc(C(C)(C)F)n2)cc1 [Example 216] | – | – | 100 | herbicidal activity (Abutilon theophrasti [6]): 100%; herbicidal activity (Alopercurus myosuroides): 98% |

From patent US11992012B2, “Diaminotriazine compounds” (BASF SE, priority 2018, dated 2024)
